In the NIST ThermoML archive (doi:10.1016/j.fluid.2016.01.043):
± gives the expanded uncertainty stated by the source.

Assays:
[1] = for viscosity / electrical conductivity: 101 kPa, Liquid; for viscosity: Cone and plate viscometry; for electrical conductivity: Frequency=0 MHz, Direct current cell with electrodes
[2] = mn = molality of the nth substance listed, in mol/kg; settings: 101 kPa, Liquid; for viscosity: Cone and plate viscometry; for electrical conductivity: Frequency=0 MHz, Direct current cell with electrodes

With `CCCC[N+]1(C)CCCC1.O=S(=O)([N-]S(=O)(=O)C(F)(F)F)C(F)(F)F` the viscosity ([1]; 293.15 K) was 102 ± 4 mPa·s, the electrical conductivity ([1]; 293.15 K) was 0.25 ± 0.01 S/m and the viscosity ([1]; 303.15 K) was 67 ± 3 mPa·s. The viscosity ([1]; 312.15 K) was 47 ± 2 mPa·s, the viscosity ([1]; 312.17 K) was 47 ± 2 mPa·s and the electrical conductivity ([1]; 313.15 K) was 0.47 ± 0.02 S/m. It also gave a viscosity ([1]; 321.22 K) of 36 ± 2 mPa·s, an electrical conductivity ([1]; 323.15 K) of 0.63 ± 0.03 S/m and a viscosity ([1]; 330.29 K) of 28 ± 1 mPa·s. For the same molecule, the electrical conductivity ([1]; 333.15 K) was 0.8 ± 0.03 S/m, the viscosity ([1]; 339.37 K) was 22 ± 1 mPa·s and the electrical conductivity ([1]; 343.15 K) was 1.01 ± 0.04 S/m. For the same molecule, the viscosity ([1]; 348.44 K) was 17 ± 1 mPa·s, the electrical conductivity ([1]; 353.15 K) was 1.21 ± 0.05 S/m and the viscosity ([1]; 357.52 K) was 14 ± 1 mPa·s. The viscosity ([1]; 367.49 K) was 11 ± 1 mPa·s, the electrical conductivity ([1]; 373.15 K) was 1.74 ± 0.07 S/m and the viscosity ([1]; 377.46 K) was 10 ± 1 mPa·s. It also gave a viscosity ([1]; 386.53 K) of 8 ± 1 mPa·s, an electrical conductivity ([1]; 393.15 K) of 2.3 ± 0.09 S/m and a viscosity ([1]; 394.73 K) of 7 ± 1 mPa·s. For the same molecule, the viscosity ([1]; 403.15 K) was 6 ± 1 mPa·s, the electrical conductivity ([1]; 413.15 K) was 2.92 ± 0.12 S/m and the electrical conductivity ([1]; 433.15 K) was 3.61 ± 0.14 S/m. For the same molecule, the electrical conductivity ([1]; 453.15 K) was 4.33 ± 0.17 S/m and the Normal melting temperature ([1]; Crystal, DTA) was -22 ± 1 °C.
`CCCC[N+]1(C)CCCC1.O=S(=O)([N-]S(=O)(=O)C(F)(F)F)C(F)(F)F` + [F][Ta]([F])([F])([F])[F] gave a viscosity ([2]; 293.15 K, m2 = 0) of 102 mPa·s, an electrical conductivity ([2]; 293.15 K, m2 = 0) of 0.25 ± 0.01 S/m and a viscosity ([2]; 303.15 K, m2 = 0) of 67 ± 33 mPa·s. It also gave a viscosity ([2]; 312.15 K, m2 = 0) of 47 ± 23 mPa·s, a viscosity ([2]; 312.17 K, m2 = 0) of 47 ± 23 mPa·s and an electrical conductivity ([2]; 313.15 K, m2 = 0) of 0.47 ± 0.02 S/m. The viscosity ([2]; 321.22 K, m2 = 0) was 36 mPa·s, the electrical conductivity ([2]; 323.15 K, m2 = 0) was 0.63 ± 0.03 S/m and the viscosity ([2]; 330.29 K, m2 = 0) was 28 mPa·s. The electrical conductivity ([2]; 333.15 K, m2 = 0) was 0.8 ± 0.03 S/m, the viscosity ([2]; 339.37 K, m2 = 0) was 22 mPa·s and the electrical conductivity ([2]; 343.15 K, m2 = 0) was 1.01 ± 0.04 S/m. It also gave a viscosity ([2]; 348.44 K, m2 = 0) of 17 ± 8 mPa·s, an electrical conductivity ([2]; 353.15 K, m2 = 0) of 1.21 ± 0.05 S/m and a viscosity ([2]; 357.52 K, m2 = 0) of 14 mPa·s. The viscosity ([2]; 367.49 K, m2 = 0) was 11 ± 5 mPa·s, the electrical conductivity ([2]; 373.15 K, m2 = 0) was 1.74 ± 0.07 S/m and the viscosity ([2]; 377.46 K, m2 = 0) was 10 mPa·s. It also gave a viscosity ([2]; 386.53 K, m2 = 0) of 8 mPa·s, an electrical conductivity ([2]; 393.15 K, m2 = 0) of 2.3 ± 0.09 S/m and a viscosity ([2]; 394.73 K, m2 = 0) of 7 mPa·s. It also gave a viscosity ([2]; 403.15 K, m2 = 0) of 6 mPa·s, an electrical conductivity ([2]; 413.15 K, m2 = 0) of 2.92 ± 0.12 S/m and an electrical conductivity ([2]; 433.15 K, m2 = 0) of 3.61 ± 0.14 S/m. The electrical conductivity ([2]; 453.15 K, m2 = 0) was 4.33 ± 0.18 S/m.
With `[F][Ta]([F])([F])([F])[F]` [Tantalum fluoride] + CCCC[N+]1(C)CCCC1.O=S(=O)([N-]S(=O)(=O)C(F)(F)F)C(F)(F)F the electrical conductivity ([2]; 293.15 K, m1 = 0.08) was 0.24 ± 0.01 S/m, the electrical conductivity ([2]; 293.15 K, m1 = 0.17) was 0.23 ± 0.01 S/m and the electrical conductivity ([2]; 293.15 K, m1 = 0.35) was 0.23 ± 0.01 S/m. For the same molecule, the electrical conductivity ([2]; 293.15 K, m1 = 0.7) was 0.22 ± 0.01 S/m, the electrical conductivity ([2]; 293.15 K, m1 = 1.41) was 0.22 ± 0.01 S/m and the viscosity ([2]; 303.15 K, m1 = 0.08) was 71 ± 35 mPa·s. It also gave a viscosity ([2]; 303.15 K, m1 = 0.17) of 73 ± 36 mPa·s, a viscosity ([2]; 303.15 K, m1 = 0.35) of 77 ± 38 mPa·s and a viscosity ([2]; 303.15 K, m1 = 0.7) of 81 ± 40 mPa·s. The viscosity ([2]; 303.15 K, m1 = 1.41) was 87 ± 43 mPa·s, the viscosity ([2]; 312.17 K, m1 = 0.08) was 51 ± 25 mPa·s and the viscosity ([2]; 312.17 K, m1 = 0.17) was 52 mPa·s. The viscosity ([2]; 312.17 K, m1 = 0.35) was 56 mPa·s, the viscosity ([2]; 312.17 K, m1 = 0.7) was 59 ± 29 mPa·s and the viscosity ([2]; 312.17 K, m1 = 1.41) was 62 mPa·s. For the same molecule, the viscosity ([2]; 321.22 K, m1 = 0.08) was 38 mPa·s, the viscosity ([2]; 321.22 K, m1 = 0.17) was 40 mPa·s and the viscosity ([2]; 321.22 K, m1 = 0.35) was 41 ± 20 mPa·s. For the same molecule, the viscosity ([2]; 321.22 K, m1 = 0.7) was 44 mPa·s, the viscosity ([2]; 321.22 K, m1 = 1.41) was 47 ± 23 mPa·s and the viscosity ([2]; 339.37 K, m1 = 0.08) was 23 ± 11 mPa·s. The viscosity ([2]; 339.37 K, m1 = 0.17) was 24 mPa·s, the viscosity ([2]; 339.37 K, m1 = 0.35) was 25 ± 12 mPa·s and the viscosity ([2]; 339.37 K, m1 = 0.7) was 26 mPa·s. For the same molecule, the viscosity ([2]; 339.37 K, m1 = 1.41) was 28 mPa·s, the viscosity ([2]; 367.49 K, m1 = 0.08) was 12 mPa·s and the viscosity ([2]; 367.49 K, m1 = 0.17) was 12 mPa·s. The viscosity ([2]; 367.49 K, m1 = 0.35) was 13 ± 6 mPa·s, the viscosity ([2]; 367.49 K, m1 = 0.7) was 14 mPa·s and the viscosity ([2]; 367.49 K, m1 = 1.41) was 15 ± 7 mPa·s. It also gave an electrical conductivity ([2]; 373.15 K, m1 = 0.08) of 1.73 ± 0.07 S/m, an electrical conductivity ([2]; 373.15 K, m1 = 0.17) of 1.66 ± 0.07 S/m and an electrical conductivity ([2]; 373.15 K, m1 = 0.35) of 1.65 ± 0.07 S/m. The electrical conductivity ([2]; 373.15 K, m1 = 0.7) was 1.56 ± 0.06 S/m, the electrical conductivity ([2]; 373.15 K, m1 = 1.41) was 1.37 ± 0.06 S/m and the viscosity ([2]; 403.15 K, m1 = 0.08) was 7 mPa·s. It also gave a viscosity ([2]; 403.15 K, m1 = 0.17) of 7 mPa·s, a viscosity ([2]; 403.15 K, m1 = 0.35) of 7 mPa·s and a viscosity ([2]; 403.15 K, m1 = 0.7) of 8 mPa·s. For the same molecule, the viscosity ([2]; 403.15 K, m1 = 1.41) was 8 mPa·s, the electrical conductivity ([2]; 413.15 K, m1 = 0.08) was 2.94 ± 0.12 S/m and the electrical conductivity ([2]; 413.15 K, m1 = 0.17) was 2.81 ± 0.11 S/m. It also gave an electrical conductivity ([2]; 413.15 K, m1 = 0.35) of 2.78 ± 0.11 S/m, an electrical conductivity ([2]; 413.15 K, m1 = 0.7) of 2.66 ± 0.11 S/m and an electrical conductivity ([2]; 413.15 K, m1 = 1.41) of 2.27 ± 0.09 S/m. It also gave an electrical conductivity ([2]; 453.15 K, m1 = 0.08) of 4.23 ± 0.17 S/m, an electrical conductivity ([2]; 453.15 K, m1 = 0.17) of 4.16 ± 0.17 S/m and an electrical conductivity ([2]; 453.15 K, m1 = 0.35) of 4.13 ± 0.17 S/m. It also gave an electrical conductivity ([2]; 453.15 K, m1 = 0.7) of 3.84 ± 0.15 S/m and an electrical conductivity ([2]; 453.15 K, m1 = 1.41) of 3.44 ± 0.14 S/m.
